According to US20220017486A1, “DOCK1-INHIBITING COMPOUND AND USE THEREOF” (KYUSHU UNIVERSITY, NATIONAL UNIVERSITY CORPORATION, priority 2018, published 2022):

Legend:
[1] = tested on: T cells (mouse spleen cells); experiment: Viability of lymphocytes (propidium iodide, flow cytometry); type: cell-based; details: in words, 1-hour culture
Protocol: Specifically, 1×10^6 mouse spleen cells were suspended in 100 μL of RPMI-1640 medium containing 0.5% BSA, and DMSO in which a predetermined concentration of each test compound was dissolved or DMSO alone was added thereto to a final DMSO concentration of 0.2%. After 1-hour culture at 37° C., 2 μL of a propidium iodide staining solution (BD Pharmingen) was added and incubated on ice for 30 minutes, followed by flow cytometry analysis. The percentage of the viable cells under each condition was calculated, considering negative cells to be viable cells.

[2] = tested on: CCL21-stimulated T cells (mouse spleen cells); experiment: T lymphocyte migration towards CCL21 (Transwell); type: cell-based; details: in words, 2-hour incubation
Protocol: In view of the above, the effect of RT-22 (Production Example 1A), which serves as a representative of the compounds of the present invention, on the lymphocyte migration was studied. Specifically, mouse spleen cells (1×10^7 cells/mL) were first precultured at 37° C. for 1 hour in 0.5 mass % BSA-containing RPMI-1640 (Transwell medium), to which DMSO alone or DMSO in which a predetermined concentration of each test compound was dissolved was added. Subsequently, 500 μL of Transwell medium containing 300 ng/mL of CCL21 and DMSO in which a predetermined concentration of each test compound was dissolved was added to a 24-well plate. Then, Transwell inserts (Corning, pore size: 5 μm) were placed in the wells, into which the precultured mouse spleen cells were loaded at 1×10^6 cells/100 μL.
After 2-hour incubation at 37° C., the cells that migrated to the lower chamber were collected and stained with PE-labeled anti-Thy1.2 antibody (53-2-1, BD Pharmingen) and APC-labeled anti-B220 antibody (RA-6B2, eBioscience). The percentage (%) of the migrated cells was calculated by dividing the number of Thy1.2^+ cells (T cells) in the lower chamber by the number of Thy1.2^+ cells (T cells) placed into the Transwell inserts.

[3] = target: T1, DOCK1 (DHR-2 domain) (Homo sapiens, UniProt Q14185); experiment: In vitro GEF assay: Rac activation by DOCK1 DHR-2 domain; type: biochemical, mice and humans; details: in words
T1 construct: polypeptide fragments corresponding to the DHR-2 domain of DOCK1 or DOCK2 from mice and humans; Histidine-SUMO (N); made in house; host or cells: E. coli Arctic express (DE3)
T1 sequence (Q14185 1207-1617 limits assumed): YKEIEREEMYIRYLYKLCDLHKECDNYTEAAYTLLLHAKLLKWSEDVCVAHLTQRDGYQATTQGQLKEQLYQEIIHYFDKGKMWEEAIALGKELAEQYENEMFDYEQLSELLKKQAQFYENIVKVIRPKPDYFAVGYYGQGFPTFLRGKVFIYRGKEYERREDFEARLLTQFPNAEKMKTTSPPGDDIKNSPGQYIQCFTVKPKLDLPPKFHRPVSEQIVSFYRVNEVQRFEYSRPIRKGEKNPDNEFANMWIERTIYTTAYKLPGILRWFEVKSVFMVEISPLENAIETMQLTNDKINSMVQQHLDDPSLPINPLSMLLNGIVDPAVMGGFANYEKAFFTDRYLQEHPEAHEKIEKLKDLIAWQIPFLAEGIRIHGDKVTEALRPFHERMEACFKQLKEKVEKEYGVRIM
Summary of the method: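 Human/mouse His-SUMO DHR-2 fragment preincubated 20 min at RT with compound (1% DMSO) in MES buffer pH 7.0 with 20 μM GDP, then added to GDP-loaded GST-Rac (15 μM) plus 3.6 μM Bodipy-FL-GTP at 30° C. Initial velocity (0–10 s fluorescence slope, ex 488/em 514 nm) vs DMSO control gave IC50.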

Compound: COC(=O)c1cc(S(=O)(=O)N2CCCC2)cn1CC(=O)c1ccc(-c2cccc(C(F)(F)F)c2)cc1 [RT-22, methyl 1-(2-oxo-2-(3′-(trifluoromethyl)-[1,1′-biphenyl]-4-yl)ethyl)-4-(pyrrolidin-1-yl-sulfonyl)-1H-pyrrole-2-carboxylate]
- viability of T cells [1]: no effect
- migration of CCL21-stimulated T cells [2]: no effect
- DOCK1-inhibiting activity compared with TBOPP ([3]; GEF assay): higher than those of TBOPP
- selective inhibitory activity against DOCK1 compared to TBOPP ([3]; GEF assay): higher than those of TBOPP
- selective inhibitory activity against DOCK1 versus DOCK2 ([3]; GEF assay DOCK1 vs DOCK2 DHR-2 domain): higher selective inhibitory activity against DOCK1 than against DOCK2
